Data on 5 compounds can be found in PMC4138887, “Natural Product Polyamines That Inhibit Human Carbonic Anhydrases” (BioMed Research International, 2014).

pIC50, pKi: −log10 of the molar value. Values after ≈ are worked out from the molar mass of the structure shown. Bounds are passed on as bounds.

One experiment has as its target T1, hCA XIV (Homo sapiens, UniProt Q9ULX7).
T1 construct: made in house; host or cells: E. coli
In words: stopped-flow CO2 hydration CA inhibition assay. The experiment is classed as biochemical. Particulars: recombinant human CA XIV; stopped-flow CO2 hydrase assay; errors ±5%, three determinations; read-out: K i CA XIV.

A further experiment addresses T2, hCA IX (Homo sapiens, UniProt Q16790).
T2 construct: made in house; host or cells: E. coli
In words: stopped-flow CO2 hydration CA inhibition assay. In kind it is biochemical. The settings on record: recombinant human CA IX; stopped-flow CO2 hydrase assay; errors ±5%, three determinations; read-out: K i CA IX.

For another experiment, the target named is T3, hCA IV (Homo sapiens, UniProt P22748).
T3 construct: made in house; host or cells: E. coli
T3 sequence (P22748 19-312): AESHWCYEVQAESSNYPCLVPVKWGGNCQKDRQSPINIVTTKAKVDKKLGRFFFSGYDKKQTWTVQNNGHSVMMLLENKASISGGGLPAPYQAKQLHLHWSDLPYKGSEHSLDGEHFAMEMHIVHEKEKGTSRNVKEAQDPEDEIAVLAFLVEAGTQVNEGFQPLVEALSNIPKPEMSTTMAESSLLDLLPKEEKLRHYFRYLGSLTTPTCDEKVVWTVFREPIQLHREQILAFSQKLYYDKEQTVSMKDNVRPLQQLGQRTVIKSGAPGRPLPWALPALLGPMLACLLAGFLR
In words: stopped-flow CO2 hydration CA inhibition assay. Particulars: recombinant human CA IV; stopped-flow CO2 hydrase assay; errors ±5%, three determinations; read-out: K i CA IV. The experiment is classed as biochemical.

The subject of the next experiment is Pseudomonas aeruginosa. Also on record: method as in PMID 22515429. Particulars: antibacterial, cited from earlier work.
The next experiment addresses T4, hCA I (Homo sapiens, UniProt P00915).
T4 construct: made in house; host or cells: E. coli
In words: stopped-flow CO2 hydration CA inhibition assay. In kind it is biochemical. Particulars: recombinant human CA I; stopped-flow CO2 hydrase assay; errors ±5%, three determinations; read-out: K i CA I.

The target of a further experiment is T5, hCA XII (Homo sapiens, UniProt O43570).
T5 construct: made in house; host or cells: E. coli
T5 sequence (O43570 25-354): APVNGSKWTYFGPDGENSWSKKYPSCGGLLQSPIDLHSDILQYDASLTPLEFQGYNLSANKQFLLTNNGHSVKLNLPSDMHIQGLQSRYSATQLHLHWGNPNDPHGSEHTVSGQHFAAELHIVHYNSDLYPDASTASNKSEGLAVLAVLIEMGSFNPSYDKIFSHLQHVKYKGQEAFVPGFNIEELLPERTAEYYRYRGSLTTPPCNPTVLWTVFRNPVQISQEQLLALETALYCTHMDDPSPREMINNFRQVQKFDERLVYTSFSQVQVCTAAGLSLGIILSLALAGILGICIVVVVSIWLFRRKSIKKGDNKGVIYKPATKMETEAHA
Description: stopped-flow CO2 hydration CA inhibition assay. In kind it is biochemical. The settings on record: recombinant human CA XII; stopped-flow CO2 hydrase assay; errors ±5%, three determinations; read-out: K i CA XII.

Another experiment has as its target T6, hCA II (Homo sapiens, UniProt P00918).
T6 construct: made in house; host or cells: E. coli
Description: stopped-flow CO2 hydration CA inhibition assay. In kind it is biochemical. The settings on record: recombinant human CA II; stopped-flow CO2 hydrase assay; errors ±5%, three determinations; read-out: K i CA II.

Experiment [1] concerns drug sensitive Plasmodium falciparum parasite line (3D7). Also noted: method as in earlier work. Particulars: drug sensitive parasite line 3D7; read-out: IC50 towards Plasmodium falciparum 3D7; cited from earlier work.

T1 sequence (Q9ULX7 16-337): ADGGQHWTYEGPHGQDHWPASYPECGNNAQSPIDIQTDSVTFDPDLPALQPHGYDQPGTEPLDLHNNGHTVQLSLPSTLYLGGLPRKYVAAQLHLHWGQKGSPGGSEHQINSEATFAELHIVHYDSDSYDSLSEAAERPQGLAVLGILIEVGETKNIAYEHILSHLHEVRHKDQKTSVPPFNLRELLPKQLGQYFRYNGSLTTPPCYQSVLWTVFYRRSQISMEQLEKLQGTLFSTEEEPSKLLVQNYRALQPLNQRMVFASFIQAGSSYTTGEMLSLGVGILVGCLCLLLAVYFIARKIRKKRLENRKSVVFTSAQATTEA
T4 sequence (P00915 whole entry): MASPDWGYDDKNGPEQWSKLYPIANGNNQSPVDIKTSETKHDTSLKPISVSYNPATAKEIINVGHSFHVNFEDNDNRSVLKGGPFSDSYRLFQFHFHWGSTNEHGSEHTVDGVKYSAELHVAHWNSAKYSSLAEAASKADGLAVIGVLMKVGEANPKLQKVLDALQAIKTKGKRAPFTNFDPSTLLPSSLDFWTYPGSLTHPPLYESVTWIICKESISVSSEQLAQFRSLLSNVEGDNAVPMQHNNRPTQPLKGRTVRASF
Description for hCA II: (§1) An Applied Photophysics stopped-flow instrument was used for assaying the CA-catalyzed CO2 hydration activity [26]. IC50 values were obtained from dose response curves working at seven different concentrations of test compound; by fitting the curves using PRISM (http://www.graphpad.com/) and nonlinear least squares methods, values represent the mean of at least three different determinations as described by us previously [27]. The inhibition constants (K i) were then derived by using the Cheng-Prusoff equation [28] as follows: K i = IC50/(1 + [S]/K m), where [S] represents the CO2 concentration at which the measurement was carried out and K m is the concentration of substrate at which the enzyme activity is at half maximal. All enzymes used were recombinant, produced in E. coli as reported earlier [29, 30].
Description for hCA IV: as §1
Description for hCA IX: as §1
Description for hCA XII: as §1
Description for hCA XIV: An Applied Photophysics stopped-flow instrument was used for assaying the CA-catalyzed CO2 hydration activity [26]. IC50 values were obtained from dose response curves working at seven different concentrations of test compound; by fitting the curves using PRISM (http://www.graphpad.com/) and nonlinear least squares methods, values represent the mean of at least three different determinations as described by us previously [27]. The inhibition constants (K i) were then derived by using the Cheng-Prusoff equation [28] as follows: K i = IC50/(1 + [S]/K m), where [S] represents the CO2 concentration at which the measurement was carried out and K m is the concentration of substrate at which the enzyme activity is at half maximal.

Take `COc1c(Br)cc(/C=C/C(=O)NCCCNCCCCNCCCN)cc1Br` [Polyamine 1, ianthelliformisamine A]: the pKi on hCA XIV is 5.67; on hCA IX it was 6.70; on hCA IV, 5.17; on hCA I it was 5.75; on hCA XII it was 5.55; at hCA II, 6.39. The “MIC against Pseudomonas aeruginosa” value in the experiment on Pseudomonas aeruginosa is 35 µM (≈ 18.2 µg/mL). Moreover, the pIC50 with Pseudomonas aeruginosa (read-out: IC50 against Pseudomonas aeruginosa) was 5.17.
Turning to `COc1c(Br)cc(/C=C/C(=O)NCCCNCCCCN)cc1Br` [Polyamine 2, ianthelliformisamine B], the pKi was 5.64 on hCA XIV; 6.46 on hCA IX; 5.04 at hCA IV; 6.11 on hCA I; 5.46 on hCA XII; 6.43 on hCA II.
In the case of `COc1c(Br)cc(/C=C/C(=O)NCCCNCCCCNCCCNC(=O)/C=C/c2cc(Br)c(OC)c(Br)c2)cc1Br` [Polyamine 3, ianthelliformisamine C], the pKi at hCA XIV is 5.16; on hCA IX, 6.57; on hCA IV, 5.04; on hCA I, 6.07; at hCA XII, 5.46; on hCA II, 6.46.
As for `O=C(NCCCCNCCCNC(=O)c1ccc(O)c(O)c1)c1ccc(O)c(O)c1` [Polyamine 5, pistillarin], in experiment [1], the pIC50 is 5.72. The pKi was 5.82 on hCA XIV; 6.44 at hCA IX; 5.15 at hCA IV; 6.10 at hCA I; 5.38 at hCA XII; 6.47 on hCA II.
spermatinamine [Polyamine 4]: the pIC50 in experiment [1] was 6.64. Also, the pKi on hCA XIV is 5.57; on hCA IX, 6.47; at hCA IV, < 4.70; on hCA I it was 6.07; on hCA XII, < 4.70; at hCA II, 6.32.

In general, pIC50 refers to the IC50 on a negative log10 scale, so that one unit is a factor of ten.
